pIC50: −log10 of the molar value.
Columns and labels:
Integrin alpha-V/beta-5 = Integrin alpha-V/beta-5 (Homo sapiens, UniProt P06756+P18084); experiment: Displacement of [125I]-echistatin from alpha-v-beta-5 integrin receptor; assay type: protein-complex assay
Integrin alpha-V/beta-3 = Integrin alpha-V/beta-3 (Homo sapiens, UniProt P05106+P06756); experiment: Displacement of [125I]-echistatin from alphavbeta3 integrin receptor; assay type: protein-complex assay
Sequence of Integrin alpha-V/beta-3 (P05106 27-788 limits assumed): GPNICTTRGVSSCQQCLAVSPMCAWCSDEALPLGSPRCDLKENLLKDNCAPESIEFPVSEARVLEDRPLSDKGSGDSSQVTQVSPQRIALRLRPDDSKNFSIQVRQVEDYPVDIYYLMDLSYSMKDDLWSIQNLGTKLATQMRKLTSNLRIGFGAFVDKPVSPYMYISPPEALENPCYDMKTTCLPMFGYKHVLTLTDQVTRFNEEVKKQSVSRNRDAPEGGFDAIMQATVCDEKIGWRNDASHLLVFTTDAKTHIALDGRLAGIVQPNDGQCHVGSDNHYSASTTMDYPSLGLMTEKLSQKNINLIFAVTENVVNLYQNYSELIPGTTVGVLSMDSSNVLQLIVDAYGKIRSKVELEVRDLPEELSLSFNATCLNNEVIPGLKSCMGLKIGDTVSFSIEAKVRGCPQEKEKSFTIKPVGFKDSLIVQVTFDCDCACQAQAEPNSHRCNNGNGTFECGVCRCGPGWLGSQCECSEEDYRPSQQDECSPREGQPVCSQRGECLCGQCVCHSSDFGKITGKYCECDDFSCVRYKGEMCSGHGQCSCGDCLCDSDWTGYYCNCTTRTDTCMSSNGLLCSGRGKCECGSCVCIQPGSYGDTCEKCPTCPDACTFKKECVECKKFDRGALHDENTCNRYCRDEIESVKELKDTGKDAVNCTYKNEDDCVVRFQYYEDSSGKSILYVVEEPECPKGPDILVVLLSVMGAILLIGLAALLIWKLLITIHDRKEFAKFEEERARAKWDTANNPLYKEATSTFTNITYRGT
Sequence of Integrin alpha-V/beta-3 (P06756 31-889 limits assumed): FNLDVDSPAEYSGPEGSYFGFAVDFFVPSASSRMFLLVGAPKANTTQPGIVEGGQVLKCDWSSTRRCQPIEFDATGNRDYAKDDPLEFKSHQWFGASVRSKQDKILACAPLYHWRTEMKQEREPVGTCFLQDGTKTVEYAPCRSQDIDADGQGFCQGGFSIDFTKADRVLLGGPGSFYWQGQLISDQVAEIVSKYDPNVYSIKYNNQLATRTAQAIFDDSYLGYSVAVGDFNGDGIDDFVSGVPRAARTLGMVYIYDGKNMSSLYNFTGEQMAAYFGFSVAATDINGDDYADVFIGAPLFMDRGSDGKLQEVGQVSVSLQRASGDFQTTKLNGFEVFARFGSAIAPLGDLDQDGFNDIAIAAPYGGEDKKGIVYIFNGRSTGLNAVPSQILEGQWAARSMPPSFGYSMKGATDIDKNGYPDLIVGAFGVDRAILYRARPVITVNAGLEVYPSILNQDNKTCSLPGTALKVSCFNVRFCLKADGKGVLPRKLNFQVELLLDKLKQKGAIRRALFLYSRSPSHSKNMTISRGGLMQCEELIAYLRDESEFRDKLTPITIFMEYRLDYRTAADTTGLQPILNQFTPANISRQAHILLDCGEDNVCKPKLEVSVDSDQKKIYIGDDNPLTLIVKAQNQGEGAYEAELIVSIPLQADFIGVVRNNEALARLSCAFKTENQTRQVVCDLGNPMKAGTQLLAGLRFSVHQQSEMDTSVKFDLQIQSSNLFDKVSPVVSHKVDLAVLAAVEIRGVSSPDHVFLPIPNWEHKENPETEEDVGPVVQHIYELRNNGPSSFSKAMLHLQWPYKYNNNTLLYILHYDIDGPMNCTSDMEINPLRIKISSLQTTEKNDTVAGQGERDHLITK
Sequence of Integrin alpha-V/beta-3 (P06756 891-1048 limits assumed): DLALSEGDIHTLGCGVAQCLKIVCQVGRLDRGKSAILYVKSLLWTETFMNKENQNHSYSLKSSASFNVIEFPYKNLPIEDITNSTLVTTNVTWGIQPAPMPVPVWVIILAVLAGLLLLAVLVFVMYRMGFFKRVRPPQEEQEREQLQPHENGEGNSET

Sequence of Integrin alpha-V/beta-5 (P06756 31-889 limits assumed): as the sequence (P06756 31-889 limits assumed) above
Sequence of Integrin alpha-V/beta-5 (P06756 891-1048 limits assumed): as the sequence (P06756 891-1048 limits assumed) above
Sequence of Integrin alpha-V/beta-5 (P18084 24-799 limits assumed): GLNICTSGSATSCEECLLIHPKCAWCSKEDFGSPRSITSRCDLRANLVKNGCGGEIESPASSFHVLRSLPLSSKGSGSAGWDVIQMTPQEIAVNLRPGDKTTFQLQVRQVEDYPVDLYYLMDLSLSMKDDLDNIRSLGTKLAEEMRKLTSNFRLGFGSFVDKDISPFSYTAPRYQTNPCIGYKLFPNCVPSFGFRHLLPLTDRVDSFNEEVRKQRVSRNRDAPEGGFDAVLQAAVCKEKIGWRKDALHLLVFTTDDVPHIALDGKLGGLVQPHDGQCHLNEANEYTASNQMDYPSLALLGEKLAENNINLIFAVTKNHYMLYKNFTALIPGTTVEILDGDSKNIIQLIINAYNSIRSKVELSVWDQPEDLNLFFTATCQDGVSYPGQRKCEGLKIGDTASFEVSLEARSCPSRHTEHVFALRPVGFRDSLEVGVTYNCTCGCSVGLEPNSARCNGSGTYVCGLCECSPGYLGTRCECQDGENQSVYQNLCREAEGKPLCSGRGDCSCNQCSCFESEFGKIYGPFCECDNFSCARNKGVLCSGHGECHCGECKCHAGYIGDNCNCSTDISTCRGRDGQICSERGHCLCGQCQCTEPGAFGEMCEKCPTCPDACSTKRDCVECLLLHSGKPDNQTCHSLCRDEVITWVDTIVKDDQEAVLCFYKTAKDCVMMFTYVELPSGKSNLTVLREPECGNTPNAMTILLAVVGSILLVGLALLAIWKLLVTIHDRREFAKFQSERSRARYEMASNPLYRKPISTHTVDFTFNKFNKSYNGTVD

pIC50 (Integrin alpha-V/beta-5) | pIC50 (Integrin alpha-V/beta-3) | SMILES
8.94 | 8.85 | NC(N)=NCCC[C@@H]1NC(=O)[C@H]2CC[C@@H]3CCC[C@H](NC(=O)[C@H](CC(=O)O)NC(=O)CNC1=O)C(=O)N32
6.90 | 7.35 | N=C(N)NCCC[C@@H]1NC(=O)[C@@H]2C[C@H](NC(=O)[C@H](CC(=O)O)NC(=O)CNC1=O)[C@@H](O)[C@@H]2O
7.59 | 8.00 | N=C(N)NCCC[C@@H]1NC(=O)[C@H]2CC[C@@H](C2)NC(=O)[C@H](CC(=O)O)NC(=O)CNC1=O
7.88 | 8.14 | N=C(N)NCCC[C@@H]1NC(=O)[C@@H]2C[C@@H](O)[C@@H](C2)NC(=O)[C@H](CC(=O)O)NC(=O)CNC1=O
7.53 | 7.45 | N=C(N)NCCC[C@@H]1NC(=O)[C@H]2C[C@H](NC(=O)[C@H](CC(=O)O)NC(=O)CNC1=O)[C@@H](O)C2
8.46 | 8.34 | N=C(N)NCCC[C@@H]1NC(=O)[C@H]2CC[C@H](C2)NC(=O)[C@H](CC(=O)O)NC(=O)CNC1=O
6.39 | 6.88 | N=C(N)NCCC[C@@H]1NC(=O)[C@H]2C[C@@H](NC(=O)[C@H](CC(=O)O)NC(=O)CNC1=O)[C@H](O)[C@H]2O
6.78 | 7.29 | N=C(N)NCCC[C@@H]1NC(=O)[C@@H]2C[C@H](NC(=O)[C@H](CC(=O)O)NC(=O)CNC1=O)[C@@H](O)[C@H]2O
5.89 | 6.15 | N=C(N)NCCC[C@@H]1NC(=O)[C@H]2C[C@@H](NC(=O)[C@H](CC(=O)O)NC(=O)CNC1=O)[C@H](O)[C@@H]2O
8.18 | 8.11 | N=C(N)NCCC[C@@H]1NC(=O)[C@@H]2CC[C@@H](C2)NC(=O)[C@H](CC(=O)O)NC(=O)CNC1=O
9.23 | 8.82 | N=C(N)NCCC[C@@H]1NC(=O)[C@@H]2CC[C@H](C2)NC(=O)[C@H](CC(=O)O)NC(=O)CNC1=O
8.34 | 8.25 | N=C(N)NCCC[C@@H]1NC(=O)[C@@H]2C[C@H](NC(=O)[C@H](CC(=O)O)NC(=O)CNC1=O)[C@@H](O)C2

From ChEMBL document CHEMBL1141196, “Grafting aminocyclopentane carboxylic acids onto the RGD tripeptide sequence generates low nanomolar alphaVbeta3/alphaVbeta5 integrin dual binders” (J Med Chem, 2005)
